Data on ten molecules can be found in US20230139171A1 (SITA Information Networking Computing UK Limited, priority 2019, published 2023).

Holding throughout (format): cell-based
One assay addresses T1, human TLR8 (Homo sapiens, UniProt Q9NR97).
T1 construct: host or cells: HEK-Blue cells
T1 sequence (Q9NR97 27-1041): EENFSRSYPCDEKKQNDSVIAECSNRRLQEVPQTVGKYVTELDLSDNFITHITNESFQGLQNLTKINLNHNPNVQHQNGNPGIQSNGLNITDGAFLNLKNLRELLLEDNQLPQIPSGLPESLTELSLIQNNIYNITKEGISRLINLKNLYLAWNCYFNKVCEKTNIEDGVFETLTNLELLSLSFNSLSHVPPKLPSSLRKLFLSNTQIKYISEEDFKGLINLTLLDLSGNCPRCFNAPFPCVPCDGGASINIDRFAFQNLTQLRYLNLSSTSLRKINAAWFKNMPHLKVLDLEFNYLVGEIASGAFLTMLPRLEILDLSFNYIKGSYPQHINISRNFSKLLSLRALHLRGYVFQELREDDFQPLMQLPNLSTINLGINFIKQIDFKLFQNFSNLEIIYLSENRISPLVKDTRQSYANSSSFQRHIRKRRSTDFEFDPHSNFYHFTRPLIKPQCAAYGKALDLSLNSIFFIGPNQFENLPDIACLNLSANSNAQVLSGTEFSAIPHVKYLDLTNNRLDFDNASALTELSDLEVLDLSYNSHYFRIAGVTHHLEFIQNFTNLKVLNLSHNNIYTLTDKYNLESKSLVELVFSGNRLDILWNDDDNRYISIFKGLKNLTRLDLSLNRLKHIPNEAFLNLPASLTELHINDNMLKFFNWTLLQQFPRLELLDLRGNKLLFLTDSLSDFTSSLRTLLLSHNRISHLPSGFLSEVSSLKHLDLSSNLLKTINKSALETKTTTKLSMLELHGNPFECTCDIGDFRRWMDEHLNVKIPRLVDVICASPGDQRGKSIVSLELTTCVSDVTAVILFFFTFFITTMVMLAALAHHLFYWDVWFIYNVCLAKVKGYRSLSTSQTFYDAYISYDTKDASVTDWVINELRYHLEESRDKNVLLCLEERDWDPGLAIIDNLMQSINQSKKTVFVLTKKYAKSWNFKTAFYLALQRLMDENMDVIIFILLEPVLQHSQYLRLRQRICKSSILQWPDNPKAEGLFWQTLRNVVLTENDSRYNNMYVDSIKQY
The assay is described as follows: TLR8 inhibition reporter assay (HEK-Blue cells, SEAP reporter, R848 stimulation). Conditions: HEK-Blue cells overexpressing human TLR8, SEAP reporter, R848 15.9 μM; read-out: TLR8 IC50. The method, boiled down: (§1)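 Dose–response from 0.05 nM to 50 μM was run in HEK-Blue human TLR7, TLR8 and TLR9 reporter cells. After 30 min at room temperature with compound, ligand was added (TLR7 gardiquimod 7.5 μM; TLR8 R848 15.9 μM; TLR9 ODN2006 5 nM) and SEAP measured next day, at 22 h.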
(Reporter assays use an easily measured gene product as a stand-in for the process of interest.)

The target in the next assay is T2, human TLR7 (Homo sapiens, UniProt Q9NYK1).
T2 construct: host or cells: HEK-Blue cells
T2 sequence (Q9NYK1 27-1049): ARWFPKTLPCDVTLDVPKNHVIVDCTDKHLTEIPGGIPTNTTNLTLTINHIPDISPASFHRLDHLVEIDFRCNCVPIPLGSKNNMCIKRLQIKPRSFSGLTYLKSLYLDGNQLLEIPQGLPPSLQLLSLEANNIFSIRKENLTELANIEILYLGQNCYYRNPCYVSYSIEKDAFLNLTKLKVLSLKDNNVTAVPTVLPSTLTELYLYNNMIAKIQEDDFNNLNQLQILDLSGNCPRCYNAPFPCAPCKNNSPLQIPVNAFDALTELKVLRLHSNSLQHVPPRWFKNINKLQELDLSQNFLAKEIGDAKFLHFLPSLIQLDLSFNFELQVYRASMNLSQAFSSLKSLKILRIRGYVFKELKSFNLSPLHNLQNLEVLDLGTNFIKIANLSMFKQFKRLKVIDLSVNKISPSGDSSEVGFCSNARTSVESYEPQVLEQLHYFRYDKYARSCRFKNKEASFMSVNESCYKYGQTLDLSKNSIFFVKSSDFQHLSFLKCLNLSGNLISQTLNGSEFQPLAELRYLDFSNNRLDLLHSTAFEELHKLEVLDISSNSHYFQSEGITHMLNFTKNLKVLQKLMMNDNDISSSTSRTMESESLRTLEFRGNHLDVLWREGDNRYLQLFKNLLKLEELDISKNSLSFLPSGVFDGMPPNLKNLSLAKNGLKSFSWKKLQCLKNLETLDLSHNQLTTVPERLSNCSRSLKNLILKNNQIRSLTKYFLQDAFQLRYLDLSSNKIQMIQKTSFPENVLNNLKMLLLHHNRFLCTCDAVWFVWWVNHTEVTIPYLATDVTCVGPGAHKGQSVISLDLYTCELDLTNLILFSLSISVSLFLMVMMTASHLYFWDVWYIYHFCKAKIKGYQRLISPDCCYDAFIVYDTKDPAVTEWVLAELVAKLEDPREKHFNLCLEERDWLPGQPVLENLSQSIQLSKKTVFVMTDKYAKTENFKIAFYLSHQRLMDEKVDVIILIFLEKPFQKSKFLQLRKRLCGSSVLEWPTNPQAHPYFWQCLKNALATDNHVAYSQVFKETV
The assay is described as follows: TLR7 inhibition reporter assay (HEK-Blue cells, SEAP reporter, gardiquimod stimulation). Conditions: HEK-Blue cells overexpressing human TLR7, SEAP reporter, gardiquimod 7.5 μM; read-out: TLR7 IC50. In a few lines:
as §1

The next assay deals with T3, human TLR9 (Homo sapiens, UniProt Q9NR96).
T3 construct: host or cells: HEK-Blue cells
T3 sequence (Q9NR96 26-1032): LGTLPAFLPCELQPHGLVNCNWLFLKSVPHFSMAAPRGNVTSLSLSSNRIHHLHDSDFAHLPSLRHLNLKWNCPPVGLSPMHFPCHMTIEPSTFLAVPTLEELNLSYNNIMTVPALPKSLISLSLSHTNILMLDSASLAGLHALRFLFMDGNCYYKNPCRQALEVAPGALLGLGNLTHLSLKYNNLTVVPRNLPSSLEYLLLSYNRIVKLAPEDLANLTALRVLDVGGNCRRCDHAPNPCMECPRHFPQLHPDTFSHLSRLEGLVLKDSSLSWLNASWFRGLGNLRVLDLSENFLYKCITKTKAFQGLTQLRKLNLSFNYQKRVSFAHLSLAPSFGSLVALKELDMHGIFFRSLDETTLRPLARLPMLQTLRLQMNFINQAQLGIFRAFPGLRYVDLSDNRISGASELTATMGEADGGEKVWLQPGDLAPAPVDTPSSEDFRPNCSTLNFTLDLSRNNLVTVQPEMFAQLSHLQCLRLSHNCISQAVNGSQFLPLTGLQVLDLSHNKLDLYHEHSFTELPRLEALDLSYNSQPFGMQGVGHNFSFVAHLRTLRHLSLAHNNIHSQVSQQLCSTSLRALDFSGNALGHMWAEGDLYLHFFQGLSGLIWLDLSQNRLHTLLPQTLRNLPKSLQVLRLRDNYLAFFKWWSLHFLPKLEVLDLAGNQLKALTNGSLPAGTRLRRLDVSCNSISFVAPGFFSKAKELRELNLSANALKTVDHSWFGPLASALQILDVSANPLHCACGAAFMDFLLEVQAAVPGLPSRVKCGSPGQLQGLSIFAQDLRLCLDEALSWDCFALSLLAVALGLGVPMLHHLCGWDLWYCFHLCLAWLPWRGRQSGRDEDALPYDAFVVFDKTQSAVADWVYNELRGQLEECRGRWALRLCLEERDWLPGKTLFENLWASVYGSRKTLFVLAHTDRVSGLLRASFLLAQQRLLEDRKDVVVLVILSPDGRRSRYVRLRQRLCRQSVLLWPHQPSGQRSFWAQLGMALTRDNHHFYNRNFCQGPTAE
The assay is described as follows: TLR9 inhibition reporter assay (HEK-Blue cells, SEAP reporter, ODN2006 stimulation). Conditions: HEK-Blue cells overexpressing human TLR9, SEAP reporter, ODN2006 5 nM. The method, boiled down: as §1

In the case of `CCN(C)C1CCC(c2nc3c(C(C)C)c(-c4cn5ncnc5c(C)c4C)[nH]c3s2)CC1` (single isomer, unassigned) [Example 191, 4-(5-(7,8-dimethyl-[1,2,4]triazolo[1,5-a]pyridin-6-yl)-6-isopropyl-4H-pyrrolo[3,2-d]thiazol-2-yl)-N-ethyl-N-methylcyclohexan-1-amine], the IC50 at human TLR8 amounted to 1.79 nM; at human TLR7, 1.5 nM; against human TLR9, 9370 nM.
For the molecule `Cc1c(-c2[nH]c3sc(C4CCC(N5CC6(COC6)C5)CC4)nc3c2C(C)C)cn2ncnc2c1C` (single isomer, unassigned) [Example 192, 6-(4-(5-(7,8-dimethyl-[1,2,4]triazolo[1,5-a]pyridin-6-yl)-6-isopropyl-4H-pyrrolo[3,2-d]thiazol-2-yl)cyclohexyl)-2-oxa-6-azaspiro[3.3]heptane], the IC50 was found to be 0.33 nM at human TLR8, 1.67 nM at human TLR7 and 16200 nM against human TLR9.
For `Cc1c(-c2[nH]c3sc(C4CCC(N5CC6(COC6)C5)CC4)nc3c2C(C)C)cn2ncnc2c1C` (single isomer, unassigned) [Example 193, 6-(4-(5-(7,8-dimethyl-[1,2,4]triazolo[1,5-a]pyridin-6-yl)-6-isopropyl-4H-pyrrolo[3,2-d]thiazol-2-yl)cyclohexyl)-2-oxa-6-azaspiro[3.3]heptane], the values for the IC50 on human TLR8, on human TLR7 and on human TLR9 were 4.45 nM, 1.97 nM and 7630 nM, respectively.
The matching figures for `Cc1c(-c2[nH]c3sc(C4CCC(NC(C)C)CC4)nc3c2C(C)C)cn2ncnc2c1C` (single isomer, unassigned) [Example 194, 4-(5-(7,8-dimethyl-[1,2,4]triazolo[1,5-a]pyridin-6-yl)-6-isopropyl-4H-pyrrolo[3,2-d]thiazol-2-yl)-N-isopropylcyclohexan-1-amine]: 0.37 nM, 0.9 nM and 9220 nM.
The matching figures for `Cc1c(-c2[nH]c3sc(C4CCC(NC(C)C)CC4)nc3c2C(C)C)cn2ncnc2c1C` (single isomer, unassigned) [Example 195, 4-(5-(7,8-dimethyl-[1,2,4]triazolo[1,5-a]pyridin-6-yl)-6-isopropyl-4H-pyrrolo[3,2-d]thiazol-2-yl)-N-isopropylcyclohexan-1-amine]: 1.66 nM, 2.24 nM and 5500 nM.
For `Cc1c(-c2[nH]c3sc(C4CCC(NCC(C)(C)O)CC4)nc3c2C(C)C)cn2ncnc2c1C` (single isomer, unassigned) [Example 196, 1-((4-(5-(7,8-dimethyl-[1,2,4]triazolo[1,5-a]pyridin-6-yl)-6-isopropyl-4H-pyrrolo[3,2-d]thiazol-2-yl)cyclohexyl)amino)-2-methylpropan-2-ol], in that order: 0.17 nM, 1.13 nM and 12700 nM.
Regarding `Cc1c(-c2[nH]c3sc(C4CCC(NCC(C)(C)O)CC4)nc3c2C(C)C)cn2ncnc2c1C` (single isomer, unassigned) [Example 197, 1-((4-(5-(7,8-dimethyl-[1,2,4]triazolo[1,5-a]pyridin-6-yl)-6-isopropyl-4H-pyrrolo[3,2-d]thiazol-2-yl)cyclohexyl)amino)-2-methylpropan-2-ol], the IC50 was 2.08 nM on human TLR8, 5.35 nM at human TLR7 and 13100 nM against human TLR9.
Consider `Cc1c(-c2[nH]c3sc(C4CCC(NCC(C)(C)C)CC4)nc3c2C(C)C)cn2ncnc2c1C` (single isomer, unassigned) [Example 199, 4-(5-(7,8-dimethyl-[1,2,4]triazolo[1,5-a]pyridin-6-yl)-6-isopropyl-4H-pyrrolo[3,2-d]thiazol-2-yl)-N-neopentylcyclohexan-1-amine], for which the IC50 at human TLR8 turned out to be 2.19 nM; at human TLR7, 4.98 nM; at human TLR9, 2950 nM.
Take `Cc1c(-c2[nH]c3sc(C4CCC(NC5CCOCC5)CC4)nc3c2C(C)C)cn2ncnc2c1C` (single isomer, unassigned) [Example 200, N-(4-(5-(7,8-dimethyl-[1,2,4]triazolo[1,5-a]pyridin-6-yl)-6-isopropyl-4H-pyrrolo[3,2-d]thiazol-2-yl)cyclohexyl)tetrahydro-2H-pyran-4-amine]: the IC50 at human TLR8 is 0.39 nM; on human TLR7 it was 0.92 nM; at human TLR9 it was 10100 nM.
Take `Cc1c(-c2[nH]c3sc(C4CCC(NC5CCOCC5)CC4)nc3c2C(C)C)cn2ncnc2c1C` (single isomer, unassigned) [Example 201, N-(4-(5-(7,8-dimethyl-[1,2,4]triazolo[1,5-a]pyridin-6-yl)-6-isopropyl-4H-pyrrolo[3,2-d]thiazol-2-yl)cyclohexyl)tetrahydro-2H-pyran-4-amine]: the figures for the IC50 at human TLR8, at human TLR7 and against human TLR9 were 4.21 nM, 6.66 nM and 9250 nM, respectively.

The term IC50 denotes the concentration needed to halve the response being measured.
